Experimental data reported in patent US8653071B2, “α4β2 neuronal nicotinic acetylcholine receptor ligands” (Suven Life Sciences Limited, priority 2009, dated 2014).
Where a name gives a salt, the structure may show the parent alone. Read-outs that look alike come from different tables or passages of the source.

Assays:
[1] = molecular target: Nicotinic Acetylcholine α4β2 Receptor (UniProt P09483+P12390); experiment: Binding assay for human or rat nicotinic acetylcholine α4β2 receptor ([3H]Cytisine displacement); conditions: [3H]Cytisine 2.5 nM, rat brain frontal cortex or recombinant human receptor in CHO cells (not specified which)
Protocol: Binding Assay for Human or Rat Nicotinic Acetylcholine α4β2 Receptor
• Receptor source: Rat brain frontal cortex or recombinant human cDNA expressed in CHO cells • Radioligand: [^3H]Cytisine 15-40 Ci/mmole • Final ligand concentration—[2.5 nM] • Non-specific determinant: Epibatidine—[0.1 μM] • Reference compound: Epibatidine • Positive control: Epibatidine Incubation Conditions:
Increasing concentrations of test compounds or standard were incubated with membrane receptors and radioligand in 120 mM NaCl, 2.5 mM KCl, 1 mM CaCl2, 1 mM MgCl2 and 50 mM TRIS-HCl (pH 7.4) for 60 minutes at room temperature. The reaction was terminated by rapid vacuum filtration onto the glass fiber filters. Radioactivity trapped onto the filters was determined and compared to the control values in order to ascertain any interactions of the test compound(s) with either cloned human or rat receptor binding site.
Literature Reference: Bunnelle W. H., Daanen J. F., Ryther K. B., Schrimpf M. R., Dart M. J., Gelain A., Meyer M. D., Frost J. M., Anderson D. J., Buckley M., Curzon P., Cao Y-J., Puttfarcken P., Searle X., Ji J., Putman C. B., Surowy C., Toma L. and Barlocco D. Structure-Activity Studies and Analgesic Efficacy of N-(3-Pyridinyl)-Bridged Bicyclic Diamines, Exceptionally Potent Agonists at Nicotinic Acetylcholine Receptors. J. Med. Chem. 2007, 50, […].

[2] = Rodent pharmacokinetic study; assay type: in vivo; conditions: Wistar, Wister rat/Male
Protocol: Rodent Pharmacokinetic Study
Three to five animals were housed in each cage. Animals were kept fasted over night and maintained on a 12 hours light/dark cycle. Three rats were dosed NCE orally (15 or 5 mg/kg) and intravenously (5 mg/kg) on day 0 and day 2
At each time point blood was collected by jugular vein. Plasma was stored frozen at −20° C. until analysis. The concentrations of the NCE compound in plasma were determined using LC-MS/MS method. Schedule time points: Pre dose 0.25, 0.5, 1, 1.5, 2, 3, 4, 6, 8, 10, 12 and 24 hours after dosing (n=3).
Pharmacokinetic parameters Cmax, Tmax, AUCt, T1/2 and Bioavailability were calculated by non-compartmental model using software WinNonlin version 5.0.1.

in vivo = conditions: male, Wistar, rat, po, 15 mg/kg
Protocol: Rodent Brain Penetration Study
(§1) Three animals were housed in each cage. Animals were given water and food ad libitum throughout the experiment, and maintained on a 12 hours light/dark cycle.
(§2) NCE compound was dissolved in water and administered orally. At Tmax (0.5, 1.0 and 2.0) animals were sacrificed to collect the plasma and brain tissue and were homogenized. Plasma and Brain was stored frozen at −20° C. until analysis. The concentrations of the NCE compound in plasma and Brain were determined using LC-MS/MS method.
(§3) The NCE compounds were quantified in plasma and brain homogenate by validated LC-MS/MS method using solid phase extraction technique. NCE compounds were quantified in the calibration range of 1-500 ng/mL in plasma and brain homogenate. Study samples were analyzed using calibration samples in the batch and quality control samples spread across the batch. Extents of brain-blood ratio were calculated (Cb/Cp).

[3] = Rodent brain penetration study; conditions: male, Wistar, rat, brain homogenate and plasma, po, 5 mg/kg
Protocol: Rodent Brain Penetration Study
as §1, §2, §3

[4] = molecular target: T1, recombinant human α4β2 nicotinic acetylcholine receptor (Homo sapiens, UniProt P17787+P43681); experiment: Determination of IC50 and Kb values, aequorin luminescence (intracellular calcium) assay in CHO cells; assay type: cell-based; conditions: antagonist mode vs epibatidine
T1 construct: expressed in transfected cells
Protocol: Determination of IC50 and Kb Values for Nicotinic Acetylcholine α4β2 Receptor Ligands
A stable CHO cell line expressing recombinant human α4β2 nicotinic acetylcholine receptor transiently expressing aequorin protein was used for cell-based assay. The assay offers a non-radioactive based approach to determine binding of a compound to ligand gated ion channels. In this specific assay, the level of intracellular calcium, which is modulated by activation or inhibition of the channel is measured. Both the channel and aequorin genes are expressed at high level under the control of powerful CMV promotor.
The above cells were grown in 96 well clear bottom white plates in Hams F12 medium containing 10% fetal bovine serum (FBS). Prior to the addition of compounds and/or agonist, cells were serum starved for six hours. Coelentarazine (a prosthetic group for aequorin protein) was added in the medium containing 0.1% dialyzed serum and incubated overnight at 27° C. Cells were washed with assay buffer and increasing concentration of the test compound or standard were added to the plate for antagonist mode. A fixed concentration of the agonist (eipbatidine) was injected into the plate and luminescence was measured for 10 seconds. For evaluation of the compound in agonist mode, increasing concentration of the standard or test compound were injected and the luminescence was measured. Luminescence units were plotted against the compound concentrations using Graphpad software. IC50 values of the compounds were defined as the concentration required in reducing the luminescent units by 50%. The Kb values were calculated by feeding the concentration of the agonist used in the assay and its EC50 value in the same software.
Literature References: Karadsheh M. S., Shah M. S., Tang X., Macdonald R. L. and Stitzel J. A. Functional characterization of mouse α4β2 nicotinic acetylcholine receptors stably expressed in HEK293T cells. J. Neurochem. 2004, 91, 1138-1150.

Male Wister rats = experiment: Acute food intake study (animal model of hyperphagia); assay type: in vivo, rat; conditions: oral
Protocol: The appetite suppressing properties of compounds of this invention were studied using an animal model of hyperphagia.
Male Wister rats (200-210 grams) obtained from Raj Biotech, India were used as experimental animals. The experiment consisted of 6 days. The rats were adapted to the 18 hour fasting and 6 hour feeding pattern. The animals were housed in a group of three in the cages provided with the fasting grills and were fasted for 18 hours. After 18 hour fasting the rats were separated and placed individually in a cage. Weighed amount of feed was provided to rats for 6 hour and the feed intake at 1, 2, 4 and 6 hours was recorded. Again the rats were regrouped and fasted for 18 hour. The above procedure was followed for 5 days. The average cumulative food intake by the rats on the last 3 days was calculated. Animals were randomised on the basis of their last three days food intake.
One group of 8 rats received vehicle (2 mL/Kg) orally and another set of animals received compound of the formula (I) orally. Then the rats were given access to food and the food intake at 1, 2, 4 and 6 hours was recorded. The food intake by the rats treated with test compound was compared with the vehicle treated group by using students‘t’ test.

[5] = plasma, 5 mg/kg Per-Oral vs 5 mg/kg Intravenous

T1 sequence (P43681 29-627 limits assumed): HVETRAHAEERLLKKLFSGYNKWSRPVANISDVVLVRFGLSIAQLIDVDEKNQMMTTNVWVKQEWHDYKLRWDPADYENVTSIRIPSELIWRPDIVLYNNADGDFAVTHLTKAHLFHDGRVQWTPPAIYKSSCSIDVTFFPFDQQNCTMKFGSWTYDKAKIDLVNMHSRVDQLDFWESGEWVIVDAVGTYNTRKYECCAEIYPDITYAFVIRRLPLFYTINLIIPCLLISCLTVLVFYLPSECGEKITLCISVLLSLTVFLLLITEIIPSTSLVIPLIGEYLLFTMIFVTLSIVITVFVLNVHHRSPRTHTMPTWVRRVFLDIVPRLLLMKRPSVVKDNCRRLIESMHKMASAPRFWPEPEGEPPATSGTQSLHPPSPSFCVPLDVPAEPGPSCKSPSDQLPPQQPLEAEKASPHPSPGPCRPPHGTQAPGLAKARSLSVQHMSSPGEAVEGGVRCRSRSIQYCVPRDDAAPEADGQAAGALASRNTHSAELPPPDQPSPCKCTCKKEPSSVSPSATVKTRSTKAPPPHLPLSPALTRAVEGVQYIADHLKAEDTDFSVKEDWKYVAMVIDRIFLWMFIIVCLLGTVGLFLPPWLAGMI
T1 sequence (P17787 26-502): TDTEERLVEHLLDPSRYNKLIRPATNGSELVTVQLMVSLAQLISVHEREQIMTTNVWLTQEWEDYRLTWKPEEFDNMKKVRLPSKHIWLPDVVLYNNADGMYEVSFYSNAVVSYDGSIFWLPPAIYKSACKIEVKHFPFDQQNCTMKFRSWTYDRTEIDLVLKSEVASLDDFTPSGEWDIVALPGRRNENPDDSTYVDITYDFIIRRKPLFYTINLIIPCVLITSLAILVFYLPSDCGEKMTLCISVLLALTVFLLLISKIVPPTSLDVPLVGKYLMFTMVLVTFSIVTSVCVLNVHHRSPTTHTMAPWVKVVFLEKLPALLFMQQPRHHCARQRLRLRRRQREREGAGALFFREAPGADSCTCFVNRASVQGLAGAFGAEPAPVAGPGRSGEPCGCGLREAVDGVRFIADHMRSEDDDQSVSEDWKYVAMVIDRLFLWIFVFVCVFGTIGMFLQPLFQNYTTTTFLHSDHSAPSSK

Question: With CNCC1CC2CC2N1c1cncc(Br)c1 (centres unmarked) [Example 11, N-[2-(5-Bromopyridin-3-yl)-2-azabicyclo[3.1.0]hex-3-ylmethyl]methylamine] as the compound, how does the Ki ([1]; read-out: Ki) read?
Answer: 46.4 nM

Question: And the AUC(0-t) ([2]; in vivo, 5 mg/kg, Intravenous)?
Answer: 2540 ± 1300 ng·h/mL

Question: And the Cmax ([2]; in vivo, 5 mg/kg, Intravenous)?
Answer: 1440 ± 330 ng/mL

Question: And the Tmax ([2]; in vivo, 5 mg/kg, Intravenous)?
Answer: 4.8 min

Question: What about the half-life ([2]; in vivo, 5 mg/kg, Intravenous) of the same compound?
Answer: 87 ± 31.8 min

Question: What about the bioavailability ([2]; in vivo, 15 mg/kg Per-Oral vs 5 mg/kg Intravenous) of the same compound?
Answer: 59 ± 31%

Question: What about the AUC(0-t) ([2]; in vivo, 15 mg/kg, Per-Oral) of the same compound?
Answer: 3880 ± 846 ng·h/mL

Question: And the Cmax ([2]; in vivo, 15 mg/kg, Per-Oral)?
Answer: 1990 ± 435 ng/mL

Question: And the Tmax ([2]; in vivo, 15 mg/kg, Per-Oral)?
Answer: 18.6 ± 7.8 min

Question: What about the half-life ([2]; in vivo, 15 mg/kg, Per-Oral) of the same compound?
Answer: 115 ± 72 min

Question: What about the Kp (in vivo) of the same compound?
Answer: 8.75 ± 1.59

Question: What does the source list for CNCC1CC2CC2N1c1ccc(C(F)(F)F)nc1.O=C(O)/C=C/C(=O)O (centres unmarked) [Example 23, N-(2-(2-trifluoromethylpyridin-5-yl)-2-azabicyclo[3.1.0]hex-3-ylmethyl) methyl amine fumarate]?
Answer: Ki ([1]; read-out: Ki): 2 nM; bioavailability [2, 5]: 67 ± 9%; AUC(0-t) ([2]; plasma, 5 mg/kg, Intravenous): 18000 ± 3300 ng·h/mL; Cmax ([2]; plasma, 5 mg/kg, Intravenous): 3640 ± 89 ng/mL; Tmax ([2]; plasma, 5 mg/kg, Intravenous): 4.8 min; half-life ([2]; plasma, 5 mg/kg, Intravenous): 415 ± 145 min; AUC(0-t) ([2]; plasma, 5 mg/kg, Per-Oral): 12000 ± 1740 ng·h/mL; Cmax ([2]; plasma, 5 mg/kg, Per-Oral): 2310 ± 163 ng/mL; Tmax ([2]; plasma, 5 mg/kg, Per-Oral): 19.8 ± 8.4 min; half-life ([2]; plasma, 5 mg/kg, Per-Oral): 307 ± 11.4 min; Kp [3]: 1.97 ± 0.08

Question: With Brc1cncc(N2C(CN3CCNCC3)CC3CC32)c1 (centres unmarked) [Example 8, 2-(5-Bromopyridin-3-yl)-3-(piperazin-1-ylmethyl)-2-azabicyclo[3.1.0]hexane] as the compound, how does the Kb ([4]; Kb) read?
Answer: 4.6 nM

Question: What about the Ki ([1]; read-out: Ki) of the same compound?
Answer: 610 nM

Question: With Brc1cncc(N2C(CN3CCNCC3)CC3CC32)c1 (centres unmarked) [Example 9, 2-(5-Bromopyridin-3-yl)-3-(piperazin-1-ylmethyl)-2-aza-bicyclo[3.1.0]hexane] as the compound, how does the Kb ([4]; Kb) read?
Answer: 73.1 nM

Question: With CN(C)CC1CC2CC2N1c1cccnc1 (centres unmarked) [Example 10, N-[2-(Pyridin-3-yl)-2-azabicyclo[3.1.0]hex-3-ylmethyl]dimethylamine] as the compound, how does the Kb ([4]; read-out: Kb) read?
Answer: 3.4 nM

Question: And the Ki ([1]; read-out: Ki)?
Answer: 77 nM

Question: What does the source list for NCC1CC2CC2N1c1cccnc1 (centres unmarked) [Example 18, [2-(Pyridin-3-yl)-2-azabicyclo[3.1.0]hex-3-yl] methylamine fumarate]?
Answer: Ki [1]: 6.4 nM; Inference (Male Wister rats): Active; % Suppression of food intake compared to vehicle, 1 Hour (Male Wister rats; 1 Hour, 18 hour fasted rats): 36.80%; % Suppression of food intake compared to vehicle, 2 Hour (Male Wister rats; 2 Hour, 18 hour fasted rats): 33.05%; % Suppression of food intake compared to vehicle, 4 Hour (Male Wister rats; 4 Hour, 18 hour fasted rats): 30.02%; % Suppression of food intake compared to vehicle, 6 Hour (Male Wister rats; 6 Hour, 18 hour fasted rats): 25.38%; bioavailability ([2]; in vivo, 5 mg/kg Per-Oral vs 5 mg/kg Intravenous): 87 ± 24%; AUC(0-t) ([2]; in vivo, 5 mg/kg, Intravenous): 1760 ± 228 ng·h/mL; Cmax ([2]; in vivo, 5 mg/kg, Intravenous): 701 ± 213 ng/mL; Tmax ([2]; in vivo, 5 mg/kg, Intravenous): 22.8 ± 8.4 min; half-life ([2]; in vivo, 5 mg/kg, Intravenous): 85.8 ± 6.6 min; AUC(0-t) ([2]; in vivo, 5 mg/kg, Per-Oral): 1540 ± 165 ng·h/mL; Cmax ([2]; in vivo, 5 mg/kg, Per-Oral): 355 ± 53 ng/mL; Tmax ([2]; in vivo, 5 mg/kg, Per-Oral): 4.8 min; half-life ([2]; in vivo, 5 mg/kg, Per-Oral): 105 ± 24 min; Kp [3]: 3.52 ± 0.13

Question: Which results are given for CNCC1CC2CC2N1c1cncnc1.O=C(O)/C=C/C(=O)O (centres unmarked) [Example 21, N-(2-(pyrimidin-5-yl)-2-azabicyclo[3.1.0]hex-3-ylmethyl)methyl amine fumarate]?
Answer: Ki ([1]; read-out: Ki): 465 nM; bioavailability [2, 5]: 101 ± 20%; AUC(0-t) ([2]; plasma, 5 mg/kg, Intravenous): 2030 ± 525 ng·h/mL; Cmax ([2]; plasma, 5 mg/kg, Intravenous): 1570 ± 261 ng/mL; Tmax ([2]; plasma, 5 mg/kg, Intravenous): 4.8 min; half-life ([2]; plasma, 5 mg/kg, Intravenous): 85.8 ± 10.8 min; AUC(0-t) ([2]; plasma, 5 mg/kg, Per-Oral): 1970 ± 100 ng·h/mL; Cmax ([2]; plasma, 5 mg/kg, Per-Oral): 685 ± 107 ng/mL; Tmax ([2]; plasma, 5 mg/kg, Per-Oral): 37.8 ± 15 min; half-life ([2]; plasma, 5 mg/kg, Per-Oral): 78 ± 22.2 min; Kp [3]: 1.74 ± 0.27

Question: What does the source list for CN(C)CC1CC2CC2N1c1cncc(Br)c1.Cl (centres unmarked) [Example 1, N-[2-(5-Bromopyridin-3-yl)-2-azabicyclo[3.1.0]hex-3-ylmethyl]-dimethylamine hydrochloride]?
Answer: Kb ([4]; read-out: Kb): 1.4 nM; Ki ([1]; read-out: Ki): 23 nM; AUC(0-t) ([2]; plasma, 5 mg/kg, Intravenous): 901 ± 47 ng·h/mL; Cmax ([2]; plasma, 5 mg/kg, Intravenous): 1940 ± 260 ng/mL; Tmax ([2]; plasma, 5 mg/kg, Intravenous): 8.4 ± 6 min; half-life ([2]; plasma, 5 mg/kg, Intravenous): 59.4 ± 15 min; bioavailability ([2]; plasma, 15 mg/kg Per-Oral vs 5 mg/kg Intravenous): 10 ± 5%; AUC(0-t) ([2]; plasma, 15 mg/kg, Per-Oral): 273 ± 160 ng·h/mL; Cmax ([2]; plasma, 15 mg/kg, Per-Oral): 219 ± 120 ng/mL; Tmax ([2]; plasma, 15 mg/kg, Per-Oral): 15 min; half-life ([2]; plasma, 15 mg/kg, Per-Oral): 34.8 ± 7.8 min
